Results: US7892557B2, “Peptide mimotopes of mycobacterial mannosylated lipoglycans and uses thereof” (priority 2004, dated 2011)
Ends that are not written are not given here.

Experiments:
[1] = test system: IgG antibodies in sera of Mtb-infected mice; assay type: binding, BALB/c mice
RAW 264.7 cell line [2] = experiment: Confocal microscopy of FITC-labeled B11 peptide binding to RAW 264.7 cell line; assay type: cell-based, murine; details: FIG. 5A
Experimental: (§1) The cell line RAW 264.7 obtained from the American Type Culture Collection was grown in Dulbecco's modified Eagle's medium (DMEM) supplemented with 10% FCS, 1% penicillin, 1% L-glutamine, 1% nonessential amino acids, and 1% pyruvate (Biological Industries, Beit Haemek, Israel) to an 80% confluent culture at 37° C. in an atmosphere enriched with 5% CO2.
B11 peptide (50 μg) was conjugated to FITC (Biotium, Hayward, Calif.) as described by Sethi et al., [Sethi, K. K., et al. Cell Motil Cytoskeleton 52:231-241 (2002)]. For confocal microscopy, RAW 264.7 cells were grown in 8-well glass slides, Chamber Slide™ (Nunc), as described above. Cells were washed three times in cold PBS and incubated with the FITC-labeled mimotope for 5 min at 4° C. in serial dilutions of 1:2-1:100 in cold PBS. Slides were imaged immediately with a Zeiss 410 confocal laser scanning microscope.

RAW 264.7 cell line [3] = experiment: FACS analysis of FITC-labeled mimotope binding to RAW 264.7 cell line; assay type: cell-based, murine
Experimental: as §1
RAW 264.7 cells were grown in a 250-ml flask, washed 3 times in cold PBS, and harvested. Cells were then incubated for 15 min at 37° C., with the FITC-labeled peptide diluted 1:50, then washed 3 times in cold PBS. The fluorescence levels of 10,000 cell counts were determined by FACS (Becton Dickinson, Franklin Lakes, N.J.) and analyzed by CELLQuest™ software. Assay of competitive binding between mannose and the FITC-labeled B11 peptide was performed according to Nguyen and Hildreth, [Nguyen, D. G., and Hildreth, J. E. Eur J Immunol 33:483-493 (2003)].

CS40 anti-ManLAM mAb = experiment: ELISA competition vs. ManLAM for CS40 mAb; assay type: binding; details: 50 μg/ml of peptide; FIG. 1B
Experimental: Binding efficacy of the amino acid molecule to ManLAM binding antibodies may be evaluated by determining the magnitude of OD decrease when serial dilutions of phage clones/amino acid molecule are incubated with CS40 mAb. The phage clones/amino acid molecule with a higher affinity to mAb will show maximum inhibition of the binding of the mAb to ManLAM with the lowest number of phage particles or lowest amount of amino acid molecule, respectively.
ELISA competition assay was performed according to Kaur et al., [Kaur, D., et al. Microbiology 148:3049-3057 (2002)]. Briefly, plates were coated with 0.5 μg/well ManLAM. Plates were blocked as described above. The CS40 mAb (diluted 1:2000) was mixed with various concentrations of either phage particles in TBS/1% BSA ([…]) or peptides in PBS/1% BSA (0-200 μg/well). […] After washing (PBS), the ELISA procedure was performed as described above. Samples were all tested in triplicate
Efficiency of binding was evaluated by the magnitude of OD decrease when serial dilutions of phage clones were incubated with the CS40 mAb.

CS40 mAb = experiment: Direct peptide ELISA with CS40 mAb; assay type: binding; details: synthetic peptide coated plates
[4] = test system: serum antibodies of TB patients; experiment: Direct ELISA of human sera on B11 peptide or ManLAM coated plates; details: FIG. 4
Experimental: Direct ELISA assays were performed by coating 96-well ELISA plates (O/N at 4° C.) with 5-20 μg peptide per well in PBS ManLAM 5 μg/well (50 μl/well). The plates were washed twice in phosphate buffered saline (PBS), blocked with PBS/1% BSA and then washed twice (PBS). Sera diluted in PBS/0.5% BSA (1:50 or 1:200) or CS40 mAb (1:2000) (50 μl per well) was added and incubated for 1 h at 37° C. After washing, alkaline phosphatase-labeled goat anti-mouse immunoglobulin (Sigma, St. Louis, Mo.) was added. Following 90-min incubation at 37° C., p-nitrophenyl phosphate (KPL, Gaithersburg, Md.) was added to the plates, and optical density was measured at 405 nm using ELISA reader (ELX-800UV, Bio-Tec instruments, Winooski, Vt.). In all ELISA procedures, samples were tested in triplicate.
The presence of serum antibodies in sera of TB patients that bind the B11 peptide was tested. […] Using ELISA, sera from Bacillus Calmette Guerin (BCG)-vaccinated individuals (n=10) was tested, as it is sometimes difficult to distinguish BCG-vaccinated individuals from TB patients [Ciesielski, S. D., J Fam Pract 40:76-80 (1995)].

CISLTEWSMWYRH (random phage display library) [SEQ ID NO: 10, B11 peptide with additional cysteine residue at the amino terminus]
binding properties to ManLAM-binding antibodies compared with original peptide ([1]; ELISA with extra cysteine at the amino terminus, data not shown): maintained binding properties

FITC-conjugated B11 peptide: B11 peptide conjugated to FITC (ISLTEWSMWYRH; also: FITC-conjugated, position not given here)
binding to macrophage cell line RAW 264.7 by confocal microscopy (RAW 264.7 cell line [2]): bound | effect of D-mannose on binding to macrophages (FACS) (RAW 264.7 cell line [3]; 0.125 M D-mannose added, FIG. 5C): inhibited | binding to macrophage cell line RAW 264.7 by FACS analysis (RAW 264.7 cell line [3]; FITC-labeled peptide diluted 1:50, FIG. 5B): bound

ISLTEWSMWYRH (random phage display library) [B11 peptide]
decrease in OD in competitive ELISA vs. ManLAM (CS40 anti-ManLAM mAb): 100% | IgG Abs in sera of Mtb-infected mice binding the antigen, vs. naive mice [1]: significantly higher | binding to CS40 mAb by direct ELISA (CS40 mAb): bound | anti-peptide antibody titers in BCG-vaccinated individuals vs. TB patients ([4]; BCG-vaccinated (n=10), p<0.001): significantly lower | antigen-binding antibody titers in sera of TB patients vs. healthy individuals ([4]; TB patients (n=16) vs. healthy individuals (n=36)): Significantly higher titers
